Measured values taken from patent US12247032B2, “Substituted pyrazolo[1,5-a]pyrimidines as inhibitors of JAK kinases” (Genentech, Inc., priority 2019, dated 2025).

What was measured:
[1] = test system: JAK1 (IL-13-stimulated STAT6 phosphorylation in BEAS-2B cells); assay: P-STAT6 BEAS-2B+IL-13 cell assay; type: cell-based, human; conditions: Homo sapiens, BEAS-2B, 1 h, 1 hour compound, IL-13 15 minutes, IC50 by four-parameter fit, read-out: Cellular JAK1 PSTAT6 BEAS2B + IL13
Method in brief: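 BEAS-2B human bronchial epithelial cells preincubated 1 h at 37 °C with compound, then stimulated with human recombinant IL-13 for 15 min. Phospho-STAT6 (Tyr641) in lysates measured by MSD electrochemiluminescence immunoassay; IC50 from a four-parameter logistic fit of percent of control.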

[2] = test system: JAK2 pathway (P-STAT5 in TF-1 human erythroleukemia cells + EPO); assay: P-STAT5 TF-1+Erythropoietin (EPO) assay; type: cell-based; conditions: Homo sapiens, TF-1, 0.5 h, TF-1 cells, 30 minutes compound, EPO 30 min; IC50 by four-parameter fit; read-out: Cellular (JAK2 PSTAT5 TF1 + EPO)
Method: (§1) TF-1 human erythroleukemia cells (ATCC®; Manassas, VA; Catalog No. CRL-2003™) were grown in Roswell Park Memorial Institute (RPMI) medium supplemented with 10% heat-inactivated fetal bovine serum (FBS), 2 ng/mL granulocyte-macrophage colony-stimulating factor, 1× non-essential amino acids (NEAA), and 1 mM sodium pyruvate. The day before the assay, the cultures were transferred to Opti-MEM™, 1×NEAA, 1 mM sodium pyruvate, and 0.5% charcoal-stripped FBS (starve medium). Inhibitor stock solutions (5 mM in DMSO) were serially diluted 1:2 in DMSO to generate a 10-point concentration titration (at 500× test concentration), which was further diluted by a 50-fold dilution in Assay Medium (RPMI containing 1×NEAA and 1 mM sodium pyruvate) to generate a 10× concentration titration (in 2% DMSO). The cells (300,000 cells/well in 35 μL of Assay Medium) were seeded in 384-well Greiner plates. Diluted inhibitor at 10× concentration (5 μL) was added to the cells and the plates were incubated for 30 minutes at 37° C. in a humidified incubator. Cells were stimulated with the human recombinant cytokine at the respective EC90 concentrations, as previously determined for each individual lot. For the phosphorylated signal transducer and activator of transcription 6 (P-STAT6) TF-1+Interleukin-13 (IL-13) assay, 10 μL of 250 ng/mL IL-13 (R&D Systems; Minneapolis, MN) was added to the cells, which were then incubated for 10 minutes at 37° C. For the P-STAT5 TF-1+Erythropoietin (EPO) assay, 10 μL of 110 IU/mL EPO (Gibco Life Technologies, Catalog No. PHC2054) was added to the cells, which were then incubated for 30 min at 37° C. For both assays, the incubation was followed by addition to the cells of 5 μL of ice-cold 10× cell lysis buffer (Cell Signaling Technologies; Danvers, MA; Catalog No. 9803S) containing 1 mM phenylmethylsulfonyl fluoride (PMSF). Assay plates were frozen at −80° C. for a minimum of 1 hour. In the IL-13 assay, P-STAT6 was measured by coating goat anti-rabbit (GAR) plates (Meso Scale Discovery [MSD]; Rockville, MD; Catalog No. MSD L21RA-1) with rabbit anti-human total STAT6 antibody (Cell Signaling Technologies; Catalog No. 9362S), incubating the cell lysates in the coated plates overnight at 4° C., and then detecting with mouse anti-P-STAT6 (Tyr641) Clone 16E12 antibody (MilliporeSigma; Burlington, MA; Catalog No. 05-590, custom labeled by MSD with SULFO-tag) using standard MSD plate processing, washing, and detection protocols. In the EPO assay, P-STAT5 was detected using the phospho-STAT5a,b Whole Cell Lysate Kit (MSD; Catalog No. K150IGD-1). The electrochemiluminescence (ECL) signal of wells was read on the MESO SECTOR S600 (MSD) reader.
(§2) Data analysis was performed by subtracting the negative control (cytokine stimulated and 20 μM control inhibitor-treated cells) mean ECL value from the ECL value of all wells, determining percent of control for test compound well ECL values relative to the positive control (cytokine stimulated and DMSO-treated cells) mean ECL value, and determining the IC50 for test compounds with a four-parameter logistic fit model as shown in Equation 4.

[3] = test system: JAK1 pathway (P-STAT6 in TF-1 human erythroleukemia cells + IL-13); assay: P-STAT6 TF-1+Interleukin-13 (IL-13) assay; type: cell-based; conditions: Homo sapiens, TF-1, 0.5 h, TF-1 cells, 30 minutes compound, IL-13 10 minutes; IC50 by four-parameter fit; read-out: Cellular PSTAT6 TF-1 + IL13
Method: as §1, §2

IC50 [2] [nM] | IC50 [3] [nM] | SMILES | IC50 [1] [nM]
42 | 21 | CN1CCC(N2CC(n3nnc(Cn4cc(NC(=O)c5cnn6cccnc56)c(-c5cc(OC(F)F)ccc5OC(F)F)n4)n3)C2)CC1 [Example 38, N-[3-[2,5-bis(difluoromethoxy)phenyl]-1-[[2-[1-(1-methyl-4-piperidyl)azetidin-3-yl]tetrazol-5-yl]methyl]pyrazol-4-yl]pyrazolo[1,5-a]pyrimidine-3-carboxamide] | 18
24 | 51 | CSc1ccc(OC(F)F)c(-c2nn(Cc3nnn(C4CN(CCCN(C)C)C4)n3)cc2NC(=O)c2cnn3cccnc23)c1 [Example 58, N-[3-[2-(difluoromethoxy)-5-methylsulfanyl-phenyl]-1-[[2-[1-[3-(dimethylamino)propyl]azetidin-3-yl]tetrazol-5-yl]methyl]pyrazol-4-yl]pyrazolo[1,5-a]pyrimidine-3-carboxamide] | 57
36 | 33 | CN(C)CCN1CCC(n2nnc(Cn3cc(NC(=O)c4cnn5cccnc45)c(-c4cc(OC(F)F)ccc4OC(F)F)n3)n2)CC1 [Example 61, N-[3-[2,5-bis(difluoromethoxy)phenyl]-1-[[2-[1-[2-(dimethylamino)ethyl]-4-piperidyl]tetrazol-5-yl]methyl]pyrazol-4-yl]pyrazolo[1,5-a]pyrimidine-3-carboxamide] | 32
12 | 30 | CN(C)[C@H]1C[C@H](N2CC(n3nnc(Cn4cc(NC(=O)c5cnn6cccnc56)c(-c5cc(OC(F)F)ccc5OC(F)F)n4)n3)C2)C1 [Example 70, N-[3-[2,5-bis(difluoromethoxy)phenyl]-1-[[2-[1-[3-(dimethylamino)cyclobutyl]azetidin-3-yl]tetrazol-5-yl]methyl]pyrazol-4-yl]pyrazolo[1,5-a]pyrimidine-3-carboxamide] | 27
47 | 62 | CN1CC(N2CC(n3nnc(Cn4cc(NC(=O)c5cnn6cccnc56)c(-c5cc(OC(F)F)ccc5OC(F)F)n4)n3)C2)C1 [Example 78, N-[3-[2,5-bis(difluoromethoxy)phenyl]-1-[[2-[1-(1-methylazetidin-3-yl)azetidin-3-yl]tetrazol-5-yl]methyl]pyrazol-4-yl]pyrazolo[1,5-a]pyrimidine-3-carboxamide; formic acid] | 40

Continued, compound first:

SMILES | IC50 [2] [nM] | IC50 [3] [nM] | IC50 [1] [nM]
CN(C)CCN1CC(n2nnc(Cn3cc(NC(=O)c4cnn5cccnc45)c(-c4cc(OC(F)F)ccc4OC(F)F)n3)n2)C1 [Example 21, N-[3-[2,5-bis(difluoromethoxy)phenyl]-1-[[2-[1-[2-(dimethylamino)ethyl]azetidin-3-yl]tetrazol-5-yl]methyl]pyrazol-4-yl]pyrazolo[1,5-a]pyrimidine-3-carboxamide] | 32 | 40 | 15
CN1CCC(n2nnc(Cn3cc(NC(=O)c4cnn5cccnc45)c(-c4cc(OC(F)F)ccc4OC(F)F)n3)n2)CC1 [Example 22] | 18 | 4.8 | 19
CN1CC(n2nnc(Cn3cc(NC(=O)c4cnn5cccnc45)c(-c4cc(C5CC5)ccc4OC(F)F)n3)n2)C1 [Example 23, N-[3-[5-cyclopropyl-2-(difluoromethoxy)phenyl]-1-[[2-(1-methylazetidin-3-yl)tetrazol-5-yl]methyl]pyrazol-4-yl]pyrazolo[1,5-a]pyrimidine-3-carboxamide] | 8.2 | 7.4 | 17
CN1CCC(n2nnnc2Cn2cc(NC(=O)c3cnn4cccnc34)c(-c3cc(OC(F)F)ccc3OC(F)F)n2)C1 (stereo not drawn) [Example 26, N-[3-[2,5-bis(difluoromethoxy)phenyl]-1-[[1-(1-methylpyrrolidin-3-yl)tetrazol-5-yl]methyl]pyrazol-4-yl]pyrazolo[1,5-a]pyrimidine-3-carboxamide] | 18 | 11 | 16
CN(CCN1CC(n2nnc(Cn3cc(NC(=O)c4cnn5cccnc45)c(-c4cc(OC(F)F)ccc4OC(F)F)n3)n2)C1)C(=O)OC(C)(C)C [Example 31, tert-butyl N-[2-[3-[5-[[3-[2,5-bis(difluoromethoxy)phenyl]-4-(pyrazolo[1,5-a]pyrimidine-3-carbonylamino)pyrazol-1-yl]methyl]tetrazol-2-yl]azetidin-1-yl]ethyl]-N-methyl-carbamate] | 8.6 | 13 | 22
CN(C)CCN1CC(n2nnc(Cn3cc(NC(=O)c4cnn5cccnc45)c(-c4cc(Cl)ccc4OC(F)F)n3)n2)C1 [Example 37, N-[3-[5-chloro-2-(difluoromethoxy)phenyl]-1-[[2-[1-[2-(dimethylamino)ethyl]azetidin-3-yl]tetrazol-5-yl]methyl]pyrazol-4-yl]pyrazolo[1,5-a]pyrimidine-3-carboxamide] | 16 | 6.9 | 16
